This is an account of results in US8198307B2, “Imidazole derivatives having aryl piperidine substituent, method for preparation thereof and pharmaceutical compositions containing same” (Korea Research Institute of Chemical Technology, priority 2007, dated 2012).

Structures are written as SMILES.

T1 sequence (Q99705 whole entry, species assumed): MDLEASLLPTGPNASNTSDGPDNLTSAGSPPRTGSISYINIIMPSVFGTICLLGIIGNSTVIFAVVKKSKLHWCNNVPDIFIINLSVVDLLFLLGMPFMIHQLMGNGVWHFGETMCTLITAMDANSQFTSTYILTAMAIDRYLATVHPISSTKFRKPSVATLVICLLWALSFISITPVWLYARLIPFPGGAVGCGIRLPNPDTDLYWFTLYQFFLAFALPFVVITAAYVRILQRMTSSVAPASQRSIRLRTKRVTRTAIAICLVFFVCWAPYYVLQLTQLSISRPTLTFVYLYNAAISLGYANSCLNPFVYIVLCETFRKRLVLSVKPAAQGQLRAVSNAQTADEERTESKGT

This experiment concerns the target T1, MCH R1 (melanine-concentrating hormone receptor-1) (Homo sapiens, UniProt Q99705).
T1 construct: purchased Euroscreen, Gosselies, Belgium
The experiment is described as follows: Inhibitory effects on MCH R1 binding (Eu-MCH time-resolved fluorescence binding assay). As to conditions: concentration inhibiting the binding of MCH (Eu-MCH, 2 nM) to MCH R1 by 50% in vitro; TRF readout; test range 1 nM to 10 μM; read-out: IC50. As to the method:
First, MCH R1 (melanine-concentrating hormone receptor-1; Euroscreen, Gosselies, Belgium), 1 μM Europium-labeled melanine-concentrating hormone (Eu-MCH, PerkinElmer, Turku, Finland) and 1 mM melanine-concentrating hormone (MCH, #070-47, Phoenix, Belmont Calif., USA) were kept at 4° C. for ready use. 1 μM Eu-MCH and 1 mM MCH were diluted with an experimental solution (25 mM HEPES pH 7.4, 5 mM MgCl2, 1 mM CaCl2 and 0.5% (w/w) BSA) to 8 nM (final reaction concentration: 2 nM) and 2 μM (final reaction concentration: 0.5 μM), respectively. The compounds prepared in the Examples (“Test compounds”) were dissolved in the experimental solution in concentration of 4 nM to 40 μM (final reaction concentration: 1 nM to 10 μM). MCH R1 (200 assays/vial) was homogeneously dispersed in the experimental solution.
Then, 100 μl/well of the following reaction mixture was added to the wells of a microplate (Multiwell 96 well filter plates PN5020, Pall Co., Ann Arbor, Mich., USA) equipped with a filter paper, with an 8-channel pipette (multi 8-channel, Eppendorf, Hamburg, Germany). Specifically, to the wells of a non-specific binding control group, 25 μl of Eu-MCH, 50 μl of MCH R1 and 25 μl of MCH were added. Further, 25 μl of the experimental solution supplemented with 10% (w/w) of DMSO, 25 μl of Eu-MCH and 50 μl of MCH R1 were added to the wells of a total binding control group, while 25 μl of the test compounds, 25 μl Eu-MCH and 50 μl of MCH R1 were added to the wells of an experimental group. Subsequently, the microplate was shaken gently for 15 seconds and kept at room temperature for 90 minutes to allow the reaction to take place. Then, the plate was washed with a microplate washer (EMBLA, Molecular Devices) by washing three times with 300 μl of a washing solution (25 mM HEPES pH 7.4, 5 mM MgCl2, 1 mM CaCl2) to remove the residual unreacted Eu-MCH. Moisture was removed from the bottom of the wells and 150 μl of dissociation solution (DELFIA Enhancement solution, PerkinElmer, Turku, Finland) was added to each well, followed by keeping the plate at room temperature for 2 to 4 hours. Subsequently, time-resolved fluorescence (TRF) values were measured with a multilabel counter (Victor2, PerkinElmer, Turku, Finland) (emission wave length: 615 nm, excitation wave length: 340 nm). The inhibition rate based on the time-resolved fluorescence data was calculated using the following Equation (I). Inhibition rate of time-resolved fluorescence (%)=[(Average TRF value of the total binding group−Time-resolved fluorescence value of the test compound)/(Average TRF value of the total binding group−Average TRF value of the non-specific binding group)]×100 (I)
By IC50 is commonly meant the point on the concentration scale where inhibition reaches its midpoint. `CC(=O)Nc1cccc(C2CCN(CCCn3c(-c4cccc(Cl)c4)nc4ccc(Cl)cc43)CC2)c1` [Example 35, 2-(3-chlorophenyl)-1-{3-[4-(3-acetylaminophenyl)piperidin-1-yl]propyl}-6-chloro-1H-benzimidazole]: the IC50 came to 7 nM.
For `CCCCc1nc2cc(Br)c(C)nc2n1CCCN1CCC(c2cccc(NC(=O)C(C)C)c2)CC1` [Example 98, 6-bromo-2-butyl-5-methyl-3-{3-[4-(3-isobutyrylaminophenyl)piperidin-1-yl]propyl}-3H-imidazo[4,5-b]pyridine], the concentration for half-maximal inhibition (IC50) is 1 nM.
Under `CC(C)C(=O)Nc1cccc(C2CCN(CCn3c(-c4ccc(Cl)cc4)nc4ccccc43)CC2)c1` [Example 71, 2-(4-chlorophenyl)-1-{2-[4-(3-isobutyrylaminophenyl)piperidin-1-yl]ethyl}-1H-benzimidazole] stands over 10000 nM; under `COc1ccc(-c2nc3ccccc3n2CCCN2CCC(c3cccc(NC(C)=O)c3)CC2)cc1` [Example 19, 2-(4-methoxyphenyl)-1-{3-[4-(3-acetylaminophenyl)piperidin-1-yl]propyl}-1H-benzimidazole], 9 nM.
Under `COC(=O)c1cccc(-c2nc3ccccc3n2CCCN2CCC(c3cccc(NC(C)=O)c3)CC2)c1` [Example 76, 2-(3-methoxycarbonylphenyl)-1-{3-[4-(3-acetylaminophenyl)piperidin-1-yl]propyl}-1H-benzimidazole] stands 60 nM; under `CC(=O)Nc1cccc(C2CCN(CCCn3c(-c4cccc(C(N)=O)c4)nc4ccccc43)CC2)c1` [Example 62, 2-(3-carbamoylphenyl)-1-{3-[4-(3-acetylaminophenyl)piperidin-1-yl]propyl}-1H-benzimidazole], 11 nM; under `CC(=O)Nc1cccc(C2CCN(CCCn3c(-c4ccc(Cl)cc4)nc4ccc(F)cc43)CC2)c1` [Example 31, 2-(4-chlorophenyl)-1-{3-[4-(3-acetylaminophenyl)piperidin-1-yl]propyl}-6-fluoro-1H-benzimidazole], 11 nM.
Under `CCCCc1nc2c(C)c(-c3ccccc3)c(C)nc2n1CCCN1CCC(c2cccc(NC(=O)C(C)C)c2)CC1` [Example 100, 2-butyl-5,7-dimethyl-6-phenyl-3-{3-[4-(3-isobutyrylaminophenyl)piperidin-1-yl]propyl}-3H-imidazo[4,5-b]pyridine] stands 320 nM.
Take `CC(=O)Nc1cccc(C2CCN(CCCn3c(-c4cccn4C)nc4cc(C)c(C)cc43)CC2)c1` [Example 121, 5,6-dimethyl-2-(1-methylpyrrol-2-yl)-1-{3-[4-(3-acetamidophenyl)piperidin-1-yl]propyl}-1H-benzimidazole]: the IC50 was found to be 5 nM.
Under `CC(=O)Nc1cccc(C2CCN(CCCn3c(-c4ccc(F)cc4Cl)nc4ccccc43)CC2)c1` [Example 54, 2-(2-chloro-4-fluorophenyl)-1-{3-[4-(3-acetylaminophenyl)piperidin-1-yl]propyl}-1H-benzimidazole] stands 4 nM.
Under `CCCCc1nc2cc(-c3ccccn3)c(C)nc2n1CCCN1CCC(c2cccc(NC(C)=O)c2)CC1` [Example 97, 2-butyl-5-methyl-6-pyridin-2-yl-3-{3-[4-(3-acetylaminophenyl)piperidin-1-yl]propyl}-3H-imidazo[4,5-b]pyridine] stands 70 nM; under `COc1ncccc1-c1nc2ccccc2n1CCCN1CCC(c2cccc(NC(C)=O)c2)CC1` [Example 115, 2-(2-methoxypyridin-3-yl)-1-{3-[4-(3-acetamidophenyl)piperidin-1-yl]propyl}-1H-benzimidazole], 67 nM; under `COc1ccc(Cl)cc1-c1nc2cc(C)c(C)cc2n1CCCN1CCC(c2cccc(NC(C)=O)c2)CC1` [Example 87, 2-(5-chloro-2-methoxyphenyl)-1-{3-[4-(3-acetylaminophenyl)piperidin-1-yl]propyl}-5,6-dimethyl-1H-benzimidazole], 70 nM.
Under `CC(=O)Nc1cccc(C2CCN(CCCn3c(-c4ccccc4O)nc4ccccc43)CC2)c1` [Example 63, 2-(2-hydroxyphenyl)-1-{3-[4-(3-acetylaminophenyl)piperidin-1-yl]propyl}-1H-benzimidazole] stands 94 nM; under `CC(=O)Nc1cccc(C2CCN(CCCn3c(-c4ccc(Cl)cc4)nc4ccc(Cl)cc43)CC2)c1` [Example 25, 2-(4-chlorophenyl)-1-{3-[4-(3-acetylaminophenyl)piperidin-1-yl]propyl}-6-chloro-1H-benzimidazole], 13 nM.
Consider `CC(=O)Nc1cccc(C2CCN(CCCn3c(-c4ccccc4)nc4ccc(Cl)cc43)CC2)c1` [Example 29, 2-phenyl-1-{3-[4-(3-acetylaminophenyl)piperidin-1-yl]propyl}-6-chloro-1H-benzimidazole], for which the IC50 was 10 nM.
The same measure for `CC(=O)Nc1cccc(C2CCN(CCCn3c(-c4ccc(Cl)cc4)nc4ccc(Br)cc43)CC2)c1` [Example 36, 2-(4-chlorophenyl)-1-{3-[4-(3-acetylaminophenyl)piperidin-1-yl]propyl}-6-bromo-1H-benzimidazole]: 17 nM; for `Cc1ccc(C(=O)Nc2cccc(C3CCN(CCCn4c(-c5ccc(Cl)cc5)nc5ccccc54)CC3)c2)cc1` [Example 67, 2-(4-chlorophenyl)-1-{3-[4-(3-(4-methylbenzoylamino)phenyl)piperidin-1-yl]propyl}-1H-benzimidazole]: over 10000 nM; for `CC(=O)Nc1cccc(C2CCN(CCCn3c(-c4cccc(Cl)c4)nc4cc(C)c(C)cc43)CC2)c1` [Example 38, 2-(3-chlorophenyl)-1-{3-[4-(3-acetylaminophenyl)piperidin-1-yl]propyl}-5,6-dimethyl-1H-benzimidazole]: 3 nM.
Under `CCCCc1nc2c(C)cc(C)nc2n1CCCN1CCC(c2cccc(NC(=O)C(C)C)c2)CC1` [Example 99, 2-butyl-5,7-dimethyl-3-{3-[4-(3-isobutyrylaminophenyl)piperidin-1-yl]propyl}-3H-imidazo[4,5-b]pyridine] stands 40 nM; under `CC(=O)Nc1cccc(C2CCN(CCCn3c(-c4ccccc4)nc4ccc(Br)cc43)CC2)c1` [Example 43, 2-phenyl-1-{3-[4-(3-acetylaminophenyl)piperidin-1-yl]propyl}-6-bromo-1H-benzimidazole], 3 nM; under `CC(=O)Nc1cccc(C2CCN(CCCn3c(-c4cccc(F)c4)nc4ccc(Cl)cc43)CC2)c1` [Example 34, 2-(3-fluorophenyl)-1-{3-[4-(3-acetylaminophenyl)piperidin-1-yl]propyl}-6-chloro-1H-benzimidazole], 8 nM.
Under `CC(=O)Nc1cccc(C2CCN(CCCn3c(-c4ccncc4)nc4ccccc43)CC2)c1` [Example 106, 2-(pyridin-4-yl)-1-{3-[4-(3-acetamidophenyl)piperidin-1-yl]propyl}-1H-benzimidazole] stands 150 nM.
For `COc1ccc(Cl)cc1-c1nc2ccccc2n1CCCN1CCC(c2cccc(NC(C)=O)c2)CC1` [Example 56, 2-(5-chloro-2-methoxyphenyl)-1-{3-[4-(3-acetylaminophenyl)piperidin-1-yl]propyl}-1H-benzimidazole], the IC50 worked out at 66 nM.
With `CC(=O)Nc1cccc(C2CCN(CCCn3c(-c4cccnc4)nc4cc(Cl)ccc43)CC2)c1` [Example 116, 5-chloro-2-(pyridin-3-yl)-1-{3-[4-(3-acetamidophenyl)piperidin-1-yl]propyl}-1H-benzimidazole], the IC50 is 48 nM.
As for `COc1cc(Cl)ccc1-c1nc2cc(C)c(C)cc2n1CCCN1CCC(c2cccc(NC(C)=O)c2)CC1` [Example 86, 2-(4-chloro-2-methoxyphenyl)-1-{3-[4-(3-acetylaminophenyl)piperidin-1-yl]propyl}-5,6-dimethyl-1H-benzimidazole], the IC50 was 110 nM.
Under `CCc1nc2cc(Br)c(C)nc2n1CCCN1CCC(c2cccc(NC(C)=O)c2)CC1` [Example 93, 6-bromo-2-ethyl-5-methyl-3-{3-[4-(3-acetylaminophenyl)piperidin-1-yl]propyl}-3H-imidazo[4,5-b]pyridine] stands 98 nM.
